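Dose response: 5 concentrations. Exposure: 48 h. Format: 96-well plates. Endpoint: linear interpolation; highest concentration if not reached. Abbreviation: GI50, concentration required for 50% inhibition of growth. TGI: concentration producing complete growth inhibition.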
How the values were obtained:
Assay in all cases: NCI anticancer screen, dose series, 48 h
HCT-116 colon = tested on: HCT-116 colon
UACC-62 melanoma = tested on: UACC-62 melanoma
PC-3 prostate = tested on: PC-3 prostate
MOLT-4 leukemia = tested on: MOLT-4 leukemia
ACHN renal = tested on: ACHN renal
IGROV1 ovarian = tested on: IGROV1 ovarian
MDA-MB-231 breast = tested on: MDA-MB-231 breast
NCI-H226 lung = tested on: NCI-H226 lung
SK-OV-3 ovarian = tested on: SK-OV-3 ovarian
COLO 205 colon = tested on: COLO 205 colon
SNB-19 CNS = tested on: SNB-19 CNS
LOX IMVI melanoma = tested on: LOX IMVI melanoma
CAKI-1 renal = tested on: CAKI-1 renal
HCC-2998 colon = tested on: HCC-2998 colon
HOP-62 NSCLC = tested on: HOP-62 NSCLC
HT29 colon = tested on: HT29 colon
SF-539 CNS = tested on: SF-539 CNS
SK-MEL-5 melanoma = tested on: SK-MEL-5 melanoma
DU-145 prostate = tested on: DU-145 prostate
NCI/ADR-RES ovarian = tested on: NCI/ADR-RES ovarian
SNB-75 CNS = tested on: SNB-75 CNS
MDA-MB-435 = tested on: MDA-MB-435
SF-295 CNS = tested on: SF-295 CNS
MALME-3M melanoma = tested on: MALME-3M melanoma
SR leukemia = tested on: SR leukemia
NCI-H522 lung = tested on: NCI-H522 lung
NCI-H460 lung = tested on: NCI-H460 lung
SN12C renal = tested on: SN12C renal
HL-60(TB) leukemia = tested on: HL-60(TB) leukemia

## CSC1=Nc2c(c(C)c(-c3ccccc3)n2COC(CO)CO)C2=NC(=O)C(C)N12 (configuration not stated)
HCT-116 colon
  TGI: > 100 µM
UACC-62 melanoma
  GI50: 70.1 µM
  TGI: > 100 µM
PC-3 prostate
  GI50: > 100 µM
  TGI: > 100 µM
MOLT-4 leukemia
  GI50: 29.6 µM
  TGI: > 100 µM
ACHN renal
  GI50: > 100 µM
  TGI: > 100 µM
IGROV1 ovarian
  GI50: 26.5 µM
  TGI: > 100 µM
MDA-MB-231 breast
  GI50: > 100 µM
  TGI: > 100 µM
NCI-H226 lung
  GI50: > 100 µM
  TGI: > 100 µM
SK-OV-3 ovarian
  GI50: > 100 µM
  TGI: > 100 µM
COLO 205 colon
  GI50: > 100 µM
  TGI: > 100 µM
SNB-19 CNS
  GI50: > 100 µM
  TGI: > 100 µM
LOX IMVI melanoma
  GI50: > 100 µM
  TGI: > 100 µM
CAKI-1 renal
  GI50: > 100 µM
  TGI: > 100 µM
HCC-2998 colon
  GI50: > 100 µM
  TGI: > 100 µM
HOP-62 NSCLC
  GI50: > 100 µM
  TGI: > 100 µM
HT29 colon
  GI50: > 100 µM
  TGI: > 100 µM
SF-539 CNS
  GI50: > 100 µM
  TGI: > 100 µM
SK-MEL-5 melanoma
  GI50: > 100 µM
  TGI: > 100 µM
DU-145 prostate
  GI50: > 100 µM
  TGI: > 100 µM
NCI/ADR-RES ovarian
  GI50: > 100 µM
  TGI: > 100 µM
SNB-75 CNS
  GI50: 48.5 µM
  TGI: > 100 µM
MDA-MB-435
  GI50: > 100 µM
  TGI: > 100 µM
SF-295 CNS
  GI50: > 100 µM
  TGI: > 100 µM
MALME-3M melanoma
  GI50: > 100 µM
  TGI: > 100 µM
SR leukemia
  GI50: 4.07 µM
  TGI: > 100 µM
NCI-H522 lung
  GI50: > 100 µM
  TGI: > 100 µM
NCI-H460 lung
  GI50: > 100 µM
  TGI: > 100 µM
SN12C renal
  GI50: > 100 µM
  TGI: > 100 µM
HL-60(TB) leukemia
  GI50: 3.69 µM
  TGI: > 100 µM

Source: PubChem BioAssay (NCI)
